Source: US20230203081A1, “LINCOSAMIDE ANTIBIOTICS AND USES THEREOF” (President and Fellows of Harvard College, priority 2020, published 2023)
≈ marks a conversion by molar mass, not a printed value.

Assays:
Assay in all cases: microbe, parasite or virus in culture
Format in all cases: cell-based
[1] = tested on: E. coli armA; conditions: Escherichia coli
Method in brief: (§1)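 Isolates other than streptococci and anaerobes, which had their own procedures, were grown overnight at 35° C on tryptic soy agar with 5% sheep blood. Suspensions were then diluted to a final inoculum of 5×10^5 CFU/mL in broth microdilution wells.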

[2] = tested on: E. coli ΔTolC; conditions: Escherichia coli
Method in brief: as §1

[3] = tested on: S. aureus BAA 977 iErmA; conditions: Staphylococcus aureus
Method in brief: as §1

[4] = tested on: S. aureus MP-549 msrA; conditions: Staphylococcus aureus, MP549MSRA
Method in brief: as §1

[5] = tested on: broad panel of different clinical isolates
Method in brief: as §1

## CSC1O[C@H]([C@H](NC(=O)[C@H]2NC[C@@H]3C[C@H](CC(C)C)CCO[C@H]32)[C@H](C)Cl)C(O)[C@@H](O)[C@H]1O (stereo partly shown) [FSA-513018b]
[1]; E. coli HAV#056, Clinical, armA
  MIC: 8 µg/mL (≈ 16.2 µM)
[1]; E. coli armA
  MIC: 8 µg/mL (≈ 16.2 µM)
[2]; E. coli HAV#038, ΔTolC
  MIC: 0.5 µg/mL (≈ 1.01 µM)
[2]; E. coli ΔTolC
  MIC: 0.5 µg/mL (≈ 1.01 µM)
[3]; BAA977
  MIC: ≤ 0.06 µg/mL
[3]; BAA-977 / MRSA
  MIC: 0.06 µg/mL (≈ 0.121 µM)
[3]; BAA-977 / MRSA, 24 h
  MIC: 2 µg/mL (≈ 4.04 µM)
[4]; S. aureus MP-549 msrA
  MIC: ≤ 0.06 µg/mL
[4]; S. aureus HAV#032, MP-549, MSR(A)
  MIC: 0.06 µg/mL (≈ 0.121 µM)
[5]; Acinetobacter baumannii, A. baumannii HAV#651, Clinical
  MIC: 4 µg/mL (≈ 8.08 µM)
[5]; Acinetobacter baumannii, A. baumannii HAV#652 Clinical
  MIC: 8 µg/mL (≈ 16.2 µM)
[5]; Acinetobacter baumannii, A. baumannii HAV#653, Clinical
  MIC: 4 µg/mL (≈ 8.08 µM)
[5]; Acinetobacter baumannii, A. baumannii HAV#654, Clinical
  MIC: 8 µg/mL (≈ 16.2 µM)
[5]; Acinetobacter baumannii, A. baumannii HAV#655, Clinical
  MIC: 8 µg/mL (≈ 16.2 µM)
[5]; Acinetobacter baumannii, A. baumannii HAV#656, Clinical
  MIC: 16 µg/mL (≈ 32.3 µM)
[5]; Acinetobacter baumannii, A. baumannii HAV#657, Clinical
  MIC: 4 µg/mL (≈ 8.08 µM)
[5]; Acinetobacter baumannii, A. baumannii HAV#658, Clinical
  MIC: 4 µg/mL (≈ 8.08 µM)
[5]; Acinetobacter baumannii, A. baumannii HAV#659, Clinical
  MIC: 8 µg/mL (≈ 16.2 µM)
[5]; Acinetobacter baumannii, A. baumannii HAV#660, Clinical
  MIC: 16 µg/mL (≈ 32.3 µM)
[5]; Acinetobacter baumannii, A. baumannii HAV#661, Clinical
  MIC: 8 µg/mL (≈ 16.2 µM)
[5]; Acinetobacter baumannii, A. baumannii HAV#662, Clinical
  MIC: 8 µg/mL (≈ 16.2 µM)
[5]; Acinetobacter baumannii, A. baumannii HAV#663, Clinical
  MIC: 4 µg/mL (≈ 8.08 µM)
[5]; Acinetobacter baumannii, A. baumannii HAV#664, Carbapenem R
  MIC: 16 µg/mL (≈ 32.3 µM)
[5]; Enterococcus faecalis, E. faecalis HAV#602, Clincal
  MIC: ≤ 0.06 µg/mL
[5]; Enterococcus faecalis, E. faecalis HAV#607, Clinical
  MIC: 2 µg/mL (≈ 4.04 µM)
[5]; Enterococcus faecalis, E. faecalis HAV#609, Clinical
  MIC: 2 µg/mL (≈ 4.04 µM)
[5]; Enterococcus faecalis, E. faecalis HAV#611, Line R & Vanco R
  MIC: 0.125 µg/mL (≈ 0.252 µM)
[5]; Enterococcus faecalis, E. faecalis HAV#612, Line R
  MIC: ≤ 0.06 µg/mL
[5]; Enterococcus faecalis, S. faecalis 5060, Line R & Vanco R
  MIC: 0.125 µg/mL (≈ 0.252 µM)
[5]; Enterococcus faecalis, S. faecalis 5074, Line R
  MIC: ≤ 0.06 µg/mL
[5]; Enterococcus faecium, E. faecium HAV#317, Clinical
  MIC: 0.25 µg/mL (≈ 0.505 µM)
[5]; Enterococcus faecium, E. faecium HAV#324, Clinical
  MIC: 1 µg/mL (≈ 2.02 µM)
[5]; Enterococcus faecium, E. faecium HAV#327, Clinical
  MIC: 0.06 µg/mL (≈ 0.121 µM)
[5]; Enterococcus faecium, E. faecium HAV#328, Clinical
  MIC: 1 µg/mL (≈ 2.02 µM)
[5]; Enterococcus faecium, E. faecium HAV#329, Clinical
  MIC: 1 µg/mL (≈ 2.02 µM)
[5]; Enterococcus faecium, E. faecium HAV#604, Clinical
  MIC: 0.06 µg/mL (≈ 0.121 µM)
[5]; Enterococcus faecium, VRE, E. faecium HAV#319, Line R & Vanco R
  MIC: ≤ 0.06 µg/mL
[5]; Enterococcus faecium, VRE, E. faecium HAV#320, Clinical
  MIC: 0.25 µg/mL (≈ 0.505 µM)
[5]; Enterococcus faecium, VRE, E. faecium HAV#326, Clinical
  MIC: 0.25 µg/mL (≈ 0.505 µM)
[5]; Escherichia coli, E. coli HAV#501, Clinical
  MIC: 8 µg/mL (≈ 16.2 µM)
[5]; Escherichia coli, E. coli HAV#503, Clinical
  MIC: 8 µg/mL (≈ 16.2 µM)
[5]; Escherichia coli, E. coli HAV#511, Clinical
  MIC: 4 µg/mL (≈ 8.08 µM)
[5]; Escherichia coli, E. coli HAV#512, Clinical
  MIC: 8 µg/mL (≈ 16.2 µM)
[5]; Escherichia coli, E. coli HAV#513, Clinical
  MIC: 16 µg/mL (≈ 32.3 µM)
[5]; Escherichia coli, E. coli HAV#514, Clinical
  MIC: 8 µg/mL (≈ 16.2 µM)
[5]; Escherichia coli, E. coli HAV#516, ESBL-producing
  MIC: 8 µg/mL (≈ 16.2 µM)
[5]; Haemophilus influenzae, ATCC9007, H. influenzae HAV#376, ATCC-9007
  MIC: 0.5 µg/mL (≈ 1.01 µM)
[5]; K. pneumnoniae HAV#402, FQ-R
  MIC: 16 µg/mL (≈ 32.3 µM)
[5]; Klebsiella pneumoniae, K. pneumoniae HAV#041, Clinical, KPC
  MIC: 32 µg/mL (≈ 64.6 µM)
[5]; Klebsiella pneumoniae, K. pneumoniae HAV#402, FQ-R
  MIC: 16 µg/mL (≈ 32.3 µM)
[5]; Klebsiella pneumoniae, K. pneumoniae HAV#404, Clinical
  MIC: 32 µg/mL (≈ 64.6 µM)
[5]; Klebsiella pneumoniae, K. pneumoniae HAV#405, Clinical
  MIC: 16 µg/mL (≈ 32.3 µM)
[5]; Klebsiella pneumoniae, K. pneumoniae HAV#406, Clinical
  MIC: 64 µg/mL (≈ 129 µM)
[5]; Klebsiella pneumoniae, K. pneumoniae HAV#407, Clinical
  MIC: 128 µg/mL (≈ 259 µM)
[5]; Klebsiella pneumoniae, K. pneumoniae HAV#408, Clinical
  MIC: 128 µg/mL (≈ 259 µM)
